Source: US20140011682A1, “USE OF OPEN-CHAIN CARBOXYLIC ACIDS, CARBONIC ESTERS, CARBOXAMIDES AND CARBONITRILES OF ARYL, HETEROARYL AND BENZYLSULFONAMIDE OR THE SALTS THEREOF FOR IMPROVING THE STRESS TOLERANCE IN PLANTS” (BAYER INTELLECTUAL PROPERTY GMBH, priority 2010, published 2014)

Assays:
Assay type in all cases: in vivo
Conditions in all cases: mean of three results
BRSNS=Brassica napus = assay: Drought stress test on crop plants in the greenhouse, spray application, Brassica napus
Experimental: (§1) Seeds of monocotyledonous and dicotyledonous crop plants were placed in sandy loam in wood-fiber pots, covered with soil and cultivated in a greenhouse under good growth conditions. The test plants were treated at the early leaf stage (BBCH10 BBCH13). To ensure uniform water supply before commencement of stress, the potted plants were supplied with the maximum amount of water immediately beforehand by dam irrigation and, after application, transferred in plastic inserts in order to prevent subsequent, excessively rapid drying. The inventive compounds, formulated in the form of wettable powders (WP), wettable granules (WG), suspension concentrates (SC) or emulsion concentrates (EC), were sprayed onto the green parts of the plants as an aqueous suspension at an equivalent water application rate of 600 l/ha with addition of 0.2% wetting agent (agrotin). Substance application is followed immediately by stress treatment of the plants (cold or drought stress). For cold stress treatment, the plants were kept under the following controlled conditions:
(§2) Drought stress was induced by gradual drying out under the following conditions:
(§3) “day”: 14 hours with illumination at 26° C.
(§4) “night”: 10 hours without illumination at 18° C.
(§5) The duration of the respective stress phases was guided mainly by the state of the untreated, stressed control plants and thus varied from crop to crop. It was ended (by re-irrigating or transferring it to a greenhouse with good growth conditions) as soon as irreversible damage was observed on the untreated, stressed control plants. In the case of dicotyledonous crops, for example oilseed rape and soybeans, the duration of the drought stress phase varied between 3 and 5 days, in the case of monocotyledonous crops, for example wheat, barley or corn, between 6 and 10 days. The duration of the cold stress phase varied between 12 and 14 days. The end of the stress phase was followed by an approx. 5-7-day recovery phase, during which the plants were once again kept under good growth conditions in a greenhouse. In order to rule out any influence of the effects observed by any fungicidal action of the test compounds, it is additionally ensured that the tests proceed without fungal infection and without infection pressure.
(§6) After the recovery phase had ended, the intensities of damage were rated in visual comparison to untreated, unstressed controls of the same age (in the case of drought stress) or the same growth stage (in the case of cold stress). The intensity of damage was first assessed as a percentage (100%=plants have died, 0%=like control plants). These values were then used to calculate the efficacy of the test compounds (=percentage reduction in the intensity of damage as a result of substance application) by the following formula: […]
(§7) DVus: damage value of the untreated, stressed control
(§8) DVts: damage value of the plants treated with test compound
(§9) The tables below list mean values in each case from three results of the same test.

ZEAMX=Zea mays = assay: Drought stress test on crop plants in the greenhouse, spray application, Zea mays
Experimental: as §1, §2, §3, §4, §5, §6, §7, §8, §9

TRZAS=Triticum aestivum = assay: Drought stress test on crop plants in the greenhouse, spray application, Triticum aestivum
Experimental: as §1, §2, §3, §4, §5, §6, §7, §8, §9

## CC(C)CC(C)(C#N)NS(=O)(=O)c1ccc(Br)cc1 (centres unmarked) [I.1-14]
BRSNS=Brassica napus; dosage 25 g/ha
  EF (BRSNS): Efficacy = percentage reduction in the intensity of damage: >5%
ZEAMX=Zea mays; dosage 250 g/ha
  EF (ZEAMX): Efficacy = percentage reduction in the intensity of damage: >5%

## CCOC(=O)CC(NS(=O)(=O)c1ccc(Br)cc1)C(C)C (centres unmarked) [I.1-28]
BRSNS=Brassica napus; dosage 2.5 g/ha
  EF (BRSNS): Efficacy = percentage reduction in the intensity of damage: >5%

## COC(=O)CC(NS(=O)(=O)c1ccc(Br)cc1)C(C)C (centres unmarked) [I.1-29, Methyl 3-{[(4-bromophenyl)sulfonyl]amino}-4-methylpentanoate]
BRSNS=Brassica napus; dosage 250 g/ha
  EF (BRSNS): Efficacy = percentage reduction in the intensity of damage: >5%
ZEAMX=Zea mays; dosage 250 g/ha
  EF (ZEAMX): Efficacy = percentage reduction in the intensity of damage: >5%

## CCOC(=O)CC(NS(=O)(=O)c1ccc(Br)cc1)c1ccccc1Cl (centres unmarked) [I.1-33]
BRSNS=Brassica napus; dosage 25 g/ha
  EF (BRSNS): Efficacy = percentage reduction in the intensity of damage: >5%
TRZAS=Triticum aestivum; dosage 250 g/ha
  EF (TRZAS) Efficacy: >5%

## COC(=O)CC(NS(=O)(=O)c1ccc(Br)cc1)c1ccc(Br)cc1 (centres unmarked) [I.1-35]
BRSNS=Brassica napus; dosage 2.5 g/ha
  EF (BRSNS): Efficacy = percentage reduction in the intensity of damage: >5%
TRZAS=Triticum aestivum; dosage 25 g/ha
  EF (TRZAS) Efficacy: >5%

## COC(=O)CC(NS(=O)(=O)c1ccc(Br)cc1)C(=O)OC (centres unmarked) [I.1-63]
BRSNS=Brassica napus; dosage 250 g/ha
  EF (BRSNS): Efficacy = percentage reduction in the intensity of damage: >5%
TRZAS=Triticum aestivum; dosage 25 g/ha
  EF (TRZAS) Efficacy: >5%

## COC(=O)C(CC(C)C)NS(=O)(=O)c1ccc(Br)cc1 (centres unmarked) [I.1-77]
BRSNS=Brassica napus; dosage 250 g/ha
  EF (BRSNS): Efficacy = percentage reduction in the intensity of damage: >5%

## CCOC(=O)CC(NS(=O)(=O)c1ccc(Br)cc1)C(F)(F)F (centres unmarked) [I.1-103]
BRSNS=Brassica napus; dosage 250 g/ha
  EF (BRSNS): Efficacy = percentage reduction in the intensity of damage: >5%
TRZAS=Triticum aestivum; dosage 25 g/ha
  EF (TRZAS) Efficacy: >5%

## CCOC(=O)CC(CC(C)C)NS(=O)(=O)c1cccc2ccccc12 (centres unmarked) [I.2-62]
TRZAS=Triticum aestivum; dosage 250 g/ha
  EF (TRZAS) Efficacy: >5%
ZEAMX=Zea mays; dosage 25 g/ha
  EF (ZEAMX): Efficacy = percentage reduction in the intensity of damage: >5%

## COC(=O)C(Cc1cn(C)cn1)NS(=O)(=O)c1cccc2ccccc12 (centres unmarked) [I.2-74]
BRSNS=Brassica napus; dosage 250 g/ha
  EF (BRSNS): Efficacy = percentage reduction in the intensity of damage: >5%
TRZAS=Triticum aestivum; dosage 25 g/ha
  EF (TRZAS) Efficacy: >5%

## COC(=O)C(NS(=O)(=O)c1cccc2ccccc12)C(C)C (centres unmarked) [I.2-75]
BRSNS=Brassica napus; dosage 25 g/ha
  EF (BRSNS): Efficacy = percentage reduction in the intensity of damage: >5%
TRZAS=Triticum aestivum; dosage 25 g/ha
  EF (TRZAS) Efficacy: >5%
ZEAMX=Zea mays; dosage 250 g/ha
  EF (ZEAMX): Efficacy = percentage reduction in the intensity of damage: >5%

## COC(=O)C(CC(C)C)NS(=O)(=O)c1cccc2ccccc12 (centres unmarked) [I.2-77]
BRSNS=Brassica napus; dosage 2.5 g/ha
  EF (BRSNS): Efficacy = percentage reduction in the intensity of damage: >5%
TRZAS=Triticum aestivum; dosage 250 g/ha
  EF (TRZAS) Efficacy: >5%

## C#CCC(NS(=O)(=O)c1cccc2ccccc12)C(=O)OC (centres unmarked) [I.2-86]
BRSNS=Brassica napus; dosage 250 g/ha
  EF (BRSNS): Efficacy = percentage reduction in the intensity of damage: >5%
TRZAS=Triticum aestivum; dosage 250 g/ha
  EF (TRZAS) Efficacy: >5%

## CCOC(=O)CC(NS(=O)(=O)c1ccc(Br)c2ccccc12)C(C)C (centres unmarked) [I.3-28]
BRSNS=Brassica napus; dosage 250 g/ha
  EF (BRSNS): Efficacy = percentage reduction in the intensity of damage: >5%
TRZAS=Triticum aestivum; dosage 250 g/ha
  EF (TRZAS) Efficacy: >5%

## CC(C)(C)OC(=O)CCCNS(=O)(=O)c1ccc(Br)c2ccccc12 [I.3-70]
BRSNS=Brassica napus; dosage 2.5 g/ha
  EF (BRSNS): Efficacy = percentage reduction in the intensity of damage: >5%

## COC(=O)C(NS(=O)(=O)c1ccc(Br)c2ccccc12)C(C)C (centres unmarked) [I.3-75]
BRSNS=Brassica napus; dosage 250 g/ha
  EF (BRSNS): Efficacy = percentage reduction in the intensity of damage: >5%
TRZAS=Triticum aestivum; dosage 25 g/ha
  EF (TRZAS) Efficacy: >5%

## COC(=O)C(Cc1ccc(F)cc1)NS(=O)(=O)c1ccc(Br)c2ccccc12 (centres unmarked) [I.3-90]
BRSNS=Brassica napus; dosage 25 g/ha
  EF (BRSNS): Efficacy = percentage reduction in the intensity of damage: >5%
TRZAS=Triticum aestivum; dosage 25 g/ha
  EF (TRZAS) Efficacy: >5%

## CCOC(=O)CC(NS(=O)(=O)c1ccc(Br)c2ccccc12)C(F)(F)F (centres unmarked) [I.3-103]
BRSNS=Brassica napus; dosage 25 g/ha
  EF (BRSNS): Efficacy = percentage reduction in the intensity of damage: >5%
TRZAS=Triticum aestivum; dosage 25 g/ha
  EF (TRZAS) Efficacy: >5%

## COC(=O)C(Cc1c[nH]cn1)NS(=O)(=O)c1ccc(Br)c2ccccc12 (centres unmarked) [I.3-106]
BRSNS=Brassica napus; dosage 25 g/ha
  EF (BRSNS): Efficacy = percentage reduction in the intensity of damage: >5%
TRZAS=Triticum aestivum; dosage 250 g/ha
  EF (TRZAS) Efficacy: >5%

## CCOC(=O)CC(NS(=O)(=O)c1ccc(OC)cc1)C(C)C (centres unmarked) [I.37-28]
BRSNS=Brassica napus; dosage 250 g/ha
  EF (BRSNS): Efficacy = percentage reduction in the intensity of damage: >5%
TRZAS=Triticum aestivum; dosage 250 g/ha
  EF (TRZAS) Efficacy: >5%

## CCCC(NS(=O)(=O)c1ccc(OC)cc1)C(=O)OC (centres unmarked) [I.37-73]
BRSNS=Brassica napus; dosage 25 g/ha
  EF (BRSNS): Efficacy = percentage reduction in the intensity of damage: >5%
TRZAS=Triticum aestivum; dosage 250 g/ha
  EF (TRZAS) Efficacy: >5%

## COC(=O)C(NS(=O)(=O)c1ccc(OC)cc1)C(C)C (centres unmarked) [I.37-75]
BRSNS=Brassica napus; dosage 250 g/ha
  EF (BRSNS): Efficacy = percentage reduction in the intensity of damage: >5%

## COC(=O)C(Cc1cccnc1)NS(=O)(=O)c1ccc(OC)cc1 (centres unmarked) [I.37-82]
BRSNS=Brassica napus; dosage 250 g/ha
  EF (BRSNS): Efficacy = percentage reduction in the intensity of damage: >5%
TRZAS=Triticum aestivum; dosage 25 g/ha
  EF (TRZAS) Efficacy: >5%

## C#CCC(NS(=O)(=O)c1ccc(OC)cc1)C(=O)OC (centres unmarked) [I.37-86]
TRZAS=Triticum aestivum; dosage 250 g/ha
  EF (TRZAS) Efficacy: >5%
ZEAMX=Zea mays; dosage 250 g/ha
  EF (ZEAMX): Efficacy = percentage reduction in the intensity of damage: >5%

## COC(=O)C(Cc1ccc(F)cc1)NS(=O)(=O)c1ccc(OC)cc1 (centres unmarked) [I.37-90]
BRSNS=Brassica napus; dosage 250 g/ha
  EF (BRSNS): Efficacy = percentage reduction in the intensity of damage: >5%
ZEAMX=Zea mays; dosage 25 g/ha
  EF (ZEAMX): Efficacy = percentage reduction in the intensity of damage: >5%

## COC(=O)C(COC(C)(C)C)NS(=O)(=O)c1ccc(OC)cc1 (centres unmarked) [I.37-91]
BRSNS=Brassica napus; dosage 250 g/ha
  EF (BRSNS): Efficacy = percentage reduction in the intensity of damage: >5%
ZEAMX=Zea mays; dosage 25 g/ha
  EF (ZEAMX): Efficacy = percentage reduction in the intensity of damage: >5%

## CCOC(=O)CC(NS(=O)(=O)c1c(C)cccc1C)C(C)C (centres unmarked) [I.52-28]
BRSNS=Brassica napus; dosage 25 g/ha
  EF (BRSNS): Efficacy = percentage reduction in the intensity of damage: >5%
